Several values for one entry are separate records, joined by “and”; a condition that tells them apart may be missing. Equal entries are not always repeated.
Tests used:
mGluR2-F584I-G587T = target: T1, mGluR2-F584I-G587T (Rattus norvegicus, UniProt P31421, F584I/G587T); assay: Calcium imaging in HEK 293 T cells; type: cell-based
T1 construct: calcium imaging experiments with mutations in the full-length mGluR2 background; expressed in transfected cells; host or cells: HEK 293T
Experimental: (§1) Approximately 30 ROIs were analyzed per movie.

mGluR2-AA695SV = target: T2, mGluR2-AA695SV (Rattus norvegicus, UniProt P31421, A695S/A696V); assay: Calcium imaging in HEK 293 T cells; type: cell-based
T2 construct: calcium imaging experiments with mutations in the full-length mGluR2 background; expressed in transfected cells; host or cells: HEK 293T
T2 sequence (P31421 19-872 A695S/A696V): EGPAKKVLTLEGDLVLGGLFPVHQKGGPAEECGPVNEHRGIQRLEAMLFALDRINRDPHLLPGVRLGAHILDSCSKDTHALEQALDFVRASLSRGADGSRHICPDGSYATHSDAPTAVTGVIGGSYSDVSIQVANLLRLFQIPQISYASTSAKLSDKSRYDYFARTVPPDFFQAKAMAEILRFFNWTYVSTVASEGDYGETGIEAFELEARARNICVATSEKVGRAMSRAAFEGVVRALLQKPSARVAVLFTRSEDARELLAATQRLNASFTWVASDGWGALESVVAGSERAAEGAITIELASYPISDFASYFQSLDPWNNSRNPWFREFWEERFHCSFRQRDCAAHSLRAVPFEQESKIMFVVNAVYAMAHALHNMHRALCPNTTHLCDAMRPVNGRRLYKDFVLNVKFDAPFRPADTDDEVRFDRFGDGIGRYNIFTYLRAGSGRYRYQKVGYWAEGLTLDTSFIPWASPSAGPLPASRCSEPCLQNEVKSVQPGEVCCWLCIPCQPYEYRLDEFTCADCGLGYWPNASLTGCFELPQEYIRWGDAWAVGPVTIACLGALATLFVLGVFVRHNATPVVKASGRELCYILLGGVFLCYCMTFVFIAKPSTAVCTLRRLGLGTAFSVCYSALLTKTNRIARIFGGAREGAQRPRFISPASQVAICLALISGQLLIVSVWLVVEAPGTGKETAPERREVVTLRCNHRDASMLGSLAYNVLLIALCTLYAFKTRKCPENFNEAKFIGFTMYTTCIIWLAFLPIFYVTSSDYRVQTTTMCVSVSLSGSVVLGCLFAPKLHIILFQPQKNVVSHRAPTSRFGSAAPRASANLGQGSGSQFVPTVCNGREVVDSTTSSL
Experimental: as §1

mGluR2-A726S-G730I-A733T = target: T3, mGluR2-A726S-G730I-A733T (Rattus norvegicus, UniProt P31421, A726S/A733T/G730I); assay: Calcium imaging in HEK 293 T cells; type: cell-based
T3 construct: calcium imaging experiments with mutations in the full-length mGluR2 background; expressed in transfected cells; host or cells: HEK 293T
T3 sequence (P31421 19-872 A726S/G730I/A733T): as the sequence (P31421 19-872 A695S/A696V) above, with S677A, V678A, A708S, G712I, A715T counted along it
Experimental: as §1

mGluR2-3xTM4_W = target: T4, mGluR2-3xTM4_W (Rattus norvegicus, UniProt P31421, A677W/A681W/A685W); assay: Calcium imaging in HEK 293 T cells; type: cell-based; conditions: normalized to 1 mM glutamate, replicates
T4 construct: expressed in transfected cells; host or cells: HEK 293 T
T4 sequence (P31421 19-872 A677W/A681W/A685W): as the sequence (P31421 19-872 A695S/A696V) above, with A659W, A663W, A667W, S677A, V678A counted along it
Experimental: (§2) We tested this by introducing bulky, hydrophobic tryptophan residues into outward facing residues of TM4 to disrupt inter-subunit interaction.
as §1

mGluR3-3xTM4_W = target: T5, mGluR3-3xTM4_W (Rattus norvegicus, UniProt P31422, F690W/G694W/S686W); assay: Calcium imaging in HEK 293 T cells; type: cell-based; conditions: for Calcium response amplitude: normalized to saturating glutamate
T5 construct: expressed in transfected cells; host or cells: HEK 293 T
T5 sequence (P31422 23-879 S686W/F690W/G694W): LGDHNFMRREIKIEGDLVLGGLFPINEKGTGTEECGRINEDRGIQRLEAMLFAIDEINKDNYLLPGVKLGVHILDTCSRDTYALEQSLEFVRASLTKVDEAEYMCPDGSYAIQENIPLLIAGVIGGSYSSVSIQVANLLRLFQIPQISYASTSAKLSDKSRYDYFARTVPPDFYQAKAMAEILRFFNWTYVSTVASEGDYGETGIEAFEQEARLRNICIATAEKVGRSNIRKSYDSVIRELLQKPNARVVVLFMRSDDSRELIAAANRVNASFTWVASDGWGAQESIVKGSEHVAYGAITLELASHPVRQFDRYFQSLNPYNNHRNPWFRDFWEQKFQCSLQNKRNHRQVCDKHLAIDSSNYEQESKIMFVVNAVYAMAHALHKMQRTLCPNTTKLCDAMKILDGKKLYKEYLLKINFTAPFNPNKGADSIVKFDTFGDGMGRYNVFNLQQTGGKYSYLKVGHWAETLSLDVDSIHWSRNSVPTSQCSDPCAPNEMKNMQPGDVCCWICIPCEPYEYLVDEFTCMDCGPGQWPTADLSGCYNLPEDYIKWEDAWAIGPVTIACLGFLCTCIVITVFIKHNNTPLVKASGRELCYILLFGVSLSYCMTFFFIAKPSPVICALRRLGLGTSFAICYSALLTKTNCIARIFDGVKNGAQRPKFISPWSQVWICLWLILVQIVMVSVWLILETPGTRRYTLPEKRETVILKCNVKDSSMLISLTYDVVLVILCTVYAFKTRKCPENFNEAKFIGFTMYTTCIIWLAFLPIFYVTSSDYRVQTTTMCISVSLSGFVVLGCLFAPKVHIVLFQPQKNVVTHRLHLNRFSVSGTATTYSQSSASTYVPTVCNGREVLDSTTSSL
Experimental: as §2, §1

mGluR3 [1] = target: T6, mGluR3 (Rattus norvegicus, UniProt P31422); assay: Inter-LBD FRET (N-terminal SNAP-tags), live cells; conditions: for FRET response amplitude: mGluR3, inter-LBD FRET
T6 sequence (P31422 23-879): as the sequence (P31422 23-879 S686W/F690W/G694W) above, with W664S, W668F, W672G counted along it

mGluR2 = mGluR2 (Rattus norvegicus, UniProt P31421); assay: Inter-LBD FRET (N-terminal SNAP-tags), live cells; conditions: mGluR2, inter-LBD FRET
Chain of mGluR2 (P31421 19-872): as the sequence (P31421 19-872 A695S/A696V) above, with S677A, V678A counted along it

mGluR3 [2] = target: T6, mGluR3; assay: Calcium imaging (G protein chimera, GCaMP6f) in HEK 293 T cells
mGluR3-3xTM4 [3] = target: T7, mGluR3-3xTM4 (Rattus norvegicus, UniProt P31422, F690A/G694A/S686A); assay: Inter-LBD FRET (N-terminal SNAP-tags), live cells; conditions: for FRET response amplitude: mGluR3-3xTM4, inter-LBD FRET
T7 sequence (P31422 23-879 S686A/F690A/G694A): as the sequence (P31422 23-879 S686W/F690W/G694W) above, with W664A, W668A, W672A counted along it

mGluR2-3xTM4 = target: T8, mGluR2-3xTM4 (Rattus norvegicus, UniProt P31421, A677S/A681F/A685G/INS660ASEIGTGFPFDPHYVEVLGERMHYVDVGPRDGTPVLFLHGNPTSSYVWRNIIPHVAPTHRCIAPDLIGMGKSDKPDLGYFFDDHVRFMDAFIEALGLEEVVLVIHDWGSALGFHWAKRNPERVKGIAFMEFIRPIPTWDEWPEFARETFQAFRTTDVGRKLIIDQNVFIEGTLPMGVVRPLTEVEMDHYREPFLNPVDREPLWRFPNELPIAGEPANIVALVEEYMDWLHQSPVPKLLFWGTPGVLIPPAEAARLAKSLPNCKAVDIGPGLNLLQEDNPDLIGSEIARWLSTLEISGLE); assay: Inter-TMD FRET sensor (HaloTag in ICL2), live cells; type: cell-based
T8 construct: expressed in transfected cells; host or cells: HEK 293T
T8 sequence (P31421 with tags, fused parts or gaps with the stated changes): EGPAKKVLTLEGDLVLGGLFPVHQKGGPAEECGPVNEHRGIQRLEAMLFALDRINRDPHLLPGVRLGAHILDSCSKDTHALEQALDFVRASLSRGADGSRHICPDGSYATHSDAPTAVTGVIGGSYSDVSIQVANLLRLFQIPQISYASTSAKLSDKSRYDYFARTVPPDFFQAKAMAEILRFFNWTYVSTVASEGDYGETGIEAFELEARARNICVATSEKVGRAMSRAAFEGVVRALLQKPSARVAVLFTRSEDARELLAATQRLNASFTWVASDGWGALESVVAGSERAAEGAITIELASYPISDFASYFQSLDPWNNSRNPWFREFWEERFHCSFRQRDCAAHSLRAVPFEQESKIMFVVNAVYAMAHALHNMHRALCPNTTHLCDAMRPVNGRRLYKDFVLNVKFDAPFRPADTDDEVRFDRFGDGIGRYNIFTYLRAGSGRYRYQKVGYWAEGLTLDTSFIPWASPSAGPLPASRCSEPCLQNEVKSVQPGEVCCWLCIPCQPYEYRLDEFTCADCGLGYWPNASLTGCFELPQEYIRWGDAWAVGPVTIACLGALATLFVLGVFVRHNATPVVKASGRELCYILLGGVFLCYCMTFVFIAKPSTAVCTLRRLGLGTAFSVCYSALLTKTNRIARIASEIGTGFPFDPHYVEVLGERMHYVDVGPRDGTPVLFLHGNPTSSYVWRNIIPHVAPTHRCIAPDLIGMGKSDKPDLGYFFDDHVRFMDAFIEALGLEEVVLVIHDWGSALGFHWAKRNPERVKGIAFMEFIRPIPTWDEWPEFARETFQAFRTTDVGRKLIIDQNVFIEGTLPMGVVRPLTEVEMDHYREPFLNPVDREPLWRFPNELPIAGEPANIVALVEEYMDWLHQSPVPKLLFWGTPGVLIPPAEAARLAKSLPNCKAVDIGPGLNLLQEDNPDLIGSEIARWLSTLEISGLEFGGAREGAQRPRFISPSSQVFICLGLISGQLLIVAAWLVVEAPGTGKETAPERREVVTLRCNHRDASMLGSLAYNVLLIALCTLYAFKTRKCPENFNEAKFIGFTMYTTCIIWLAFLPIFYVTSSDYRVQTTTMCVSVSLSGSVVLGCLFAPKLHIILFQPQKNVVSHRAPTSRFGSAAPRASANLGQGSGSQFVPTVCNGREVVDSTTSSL

mGluR3-3xTM4 [4] = target: T7, mGluR3-3xTM4; assay: GIRK channel whole cell patch clamp in HEK 293 T cells; conditions: for GIRK current amplitude: mGluR3 3xTM4
mGluR2-C121A-3xTM4 = target: T9, mGluR2-C121A-3xTM4 (Rattus norvegicus, UniProt P31421, A677S/A681F/A685G/C121A); assay: SiMPull subunit counting in the presence of ligands
T9 construct: expressed in transfected cells; host or cells: HEK 293 T (detergent lysate, pulled down by anti-HA antibody)
T9 sequence (P31421 19-872 C121A/A677S/A681F/A685G): as the sequence (P31421 19-872 A695S/A696V) above, with C103A, A659S, A663F, A667G, S677A, V678A counted along it

[5] = read-out: Glutamate EC50, LBD FRET, normalized to saturating (1 mM) glutamate, unit inferred

T1 sequence (P31421 19-872 F584I/G587T): as the sequence (P31421 19-872 A695S/A696V) above, with F566I, G569T, S677A, V678A counted along it

With `N[C@@H](CCC(=O)O)C(=O)O` [glutamate] the Calcium response amplitude (mGluR2-F584I-G587T; Glutamate 100 nM) was 0.00, the Calcium response amplitude (mGluR2-F584I-G587T; Glutamate 3 uM) was 0.62 and 0.57 and 0.48 and the Calcium response amplitude (mGluR2-F584I-G587T; Glutamate 10 uM) was 0.87 and 0.71. The Calcium response amplitude (mGluR2-AA695SV; Glutamate 10 nM) was 0.00, the Calcium response amplitude (mGluR2-AA695SV; Glutamate 100 nM) was 0.00 and the Calcium response amplitude (mGluR2-AA695SV; Glutamate 10 uM) was 0.72 and 0.97. It also gave a Calcium response amplitude (mGluR2-AA695SV; Glutamate 100 uM) of 1.00, a Calcium response amplitude (mGluR2-AA695SV; Glutamate 1 mM) of 1.00 and a Calcium response amplitude (mGluR2-A726S-G730I-A733T; Glutamate 100 nM) of 0.00. The Calcium response amplitude (mGluR2-A726S-G730I-A733T; Glutamate 3 uM) was 0.71 and 0.60, the Calcium response amplitude (mGluR2-A726S-G730I-A733T; Glutamate 10 uM) was 0.93 and 0.97 and 0.56 and the Calcium response amplitude (mGluR2-A726S-G730I-A733T; Glutamate 100 uM) was 1.00. The Calcium response amplitude (mGluR2-A726S-G730I-A733T; Glutamate 1 mM) was 1.00, the Calcium response amplitude (mGluR2-3xTM4_W; Glutamate 100 nM) was 0.00 and the Calcium response amplitude (mGluR2-3xTM4_W; Glutamate 1 uM) was 0.00 and 0.08 and 0.04. For the same compound, the Calcium response amplitude (mGluR2-3xTM4_W; Glutamate 10 uM) was 0.55 and 0.51, the Calcium response amplitude (mGluR2-3xTM4_W; Glutamate 100 uM) was 1.00 and 0.99 and 0.76 and the Calcium response amplitude (mGluR2-3xTM4_W; Glutamate 1 mM) was 1.00. For the same compound, the Calcium response amplitude (mGluR3-3xTM4_W; Glutamate 10 nM, replicates) was 0.00, the Calcium response amplitude (mGluR3-3xTM4_W; Glutamate 100 nM, replicates) was 0.00 and the Calcium response amplitude (mGluR3-3xTM4_W; Glutamate 1 uM, replicates) was 0.09 and 0.064 and 0.00. The Calcium response amplitude (mGluR3-3xTM4_W; Glutamate 10 uM, replicates) was 0.20 and 0.28 and 0.12 and 0.22, the Calcium response amplitude (mGluR3-3xTM4_W; Glutamate 100 uM, replicates) was 0.41 and 0.50 and the Calcium response amplitude (mGluR3-3xTM4_W; Glutamate 1 mM) was 0.86. The Calcium response amplitude (mGluR3-3xTM4_W; Glutamate 10 mM) was 1.00, the EC50 (mGluR3-3xTM4_W; read-out: Glutamate EC50, calcium imaging, normalized to saturating (1 mM) glutamate, unit inferred) was 186 ± 0.27 µM and the FRET response amplitude (mGluR3 [1]; Glutamate 1 nM) was 0.00. The FRET response amplitude (mGluR3 [1]; Glutamate 10 nM) was 0.00, the FRET response amplitude (mGluR3 [1]; Glutamate 1 uM) was 0.66 and 0.53 and the FRET response amplitude (mGluR3 [1]; Glutamate 3 uM) was 1.00 and 0.63. For the same compound, the FRET response amplitude (mGluR3 [1]; Glutamate 10 uM) was 1.00 and 0.86, the FRET response amplitude (mGluR3 [1]; Glutamate 100 uM) was 1.00 and the EC50 (mGluR3 [1]; [5]) was 0.64 ± 0.1 µM. For the same compound, the FRET response amplitude (mGluR2; Glutamate 10 nM) was 0.00, the FRET response amplitude (mGluR2; Glutamate 100 nM) was 0.00 and the FRET response amplitude (mGluR2; Glutamate 3 uM) was 0.13 and 0.11 and 0.12 and 0.09. The FRET response amplitude (mGluR2; Glutamate 10 uM) was 0.41 and 0.51 and 0.46 and 0.30, the FRET response amplitude (mGluR2; Glutamate 100 uM) was 0.98 and 1.00 and 0.985 and the FRET response amplitude (mGluR2; Glutamate 1 mM) was 1.00. It also gave a Calcium response amplitude (mGluR3 [2]; Glutamate 1 nM, mGluR3) of 0.00, a Calcium response amplitude (mGluR3 [2]; Glutamate 1 nM, normalized to 1 mM glutamate, replicates) of 0.00 and a Calcium response amplitude (mGluR3 [2]; Glutamate 10 nM, mGluR3) of 0.00. It also gave a Calcium response amplitude (mGluR3 [2]; Glutamate 10 nM, normalized to 1 mM glutamate, replicates) of 0.00, a Calcium response amplitude (mGluR3 [2]; Glutamate 100 nM, mGluR3) of 0.23 and a Calcium response amplitude (mGluR3 [2]; Glutamate 100 nM, normalized to 1 mM glutamate, replicates) of 0.23. For the same compound, the Calcium response amplitude (mGluR3 [2]; Glutamate 1 uM, mGluR3) was 0.61 and 0.64 and 0.67 and 0.55, the Calcium response amplitude (mGluR3 [2]; Glutamate 1 uM, normalized to 1 mM glutamate, replicates) was 0.61 and 0.64 and 0.67 and 0.55 and the Calcium response amplitude (mGluR3 [2]; Glutamate 2 uM, mGluR3) was 0.66 and 0.77. The Calcium response amplitude (mGluR3 [2]; Glutamate 2 uM, normalized to 1 mM glutamate, replicates) was 0.66 and 0.77, the Calcium response amplitude (mGluR3 [2]; Glutamate 3 uM, mGluR3) was 0.83 and 0.79 and the Calcium response amplitude (mGluR3 [2]; Glutamate 3 uM, normalized to 1 mM glutamate, replicates) was 0.83 and 0.79. For the same compound, the Calcium response amplitude (mGluR3 [2]; Glutamate 5 uM, mGluR3) was 0.89 and 0.95 and 0.77, the Calcium response amplitude (mGluR3 [2]; Glutamate 5 uM, normalized to 1 mM glutamate, replicates) was 0.89 and 0.95 and 0.77 and the Calcium response amplitude (mGluR3 [2]; Glutamate 10 uM, mGluR3) was 0.99 and 0.95 and 0.92. The Calcium response amplitude (mGluR3 [2]; Glutamate 10 uM, normalized to 1 mM glutamate, replicates) was 0.99 and 0.95 and 0.92, the Calcium response amplitude (mGluR3 [2]; Glutamate 1 mM, mGluR3) was 1.00 and the Calcium response amplitude (mGluR3 [2]; Glutamate 1 mM, normalized to 1 mM glutamate, replicates) was 1.00. For the same compound, the EC50 (mGluR3 [2]; read-out: Glutamate EC50, calcium imaging, normalized to saturating (1 mM) glutamate) was 0.56 ± 0.06 µM, the FRET response amplitude (mGluR3-3xTM4 [3]; Glutamate 1 nM) was 0.00 and the FRET response amplitude (mGluR3-3xTM4 [3]; Glutamate 10 nM) was 0.00. For the same compound, the FRET response amplitude (mGluR3-3xTM4 [3]; Glutamate 1 uM) was 0.63 and 0.58, the FRET response amplitude (mGluR3-3xTM4 [3]; Glutamate 3 uM) was 0.78 and 0.90 and the FRET response amplitude (mGluR3-3xTM4 [3]; Glutamate 10 uM) was 0.99 and 0.96 and 1.05. It also gave an FRET response amplitude (mGluR3-3xTM4 [3]; Glutamate 1 mM) of 1.00, an EC50 (mGluR3-3xTM4 [3]; [5]) of 0.67 ± 0.05 µM and an FRET response amplitude (mGluR2-3xTM4; Glutamate 10 nM) of 0.00. The FRET response amplitude (mGluR2-3xTM4; Glutamate 100 nM) was 0.0446, the FRET response amplitude (mGluR2-3xTM4; Glutamate 1 uM) was 0.14 and 0.10 and 0.11 and the FRET response amplitude (mGluR2-3xTM4; Glutamate 10 uM) was 0.89 and 0.71. For the same compound, the FRET response amplitude (mGluR2-3xTM4; Glutamate 100 uM) was 1.00, the FRET response amplitude (mGluR2-3xTM4; Glutamate 1 mM) was 1.00 and the GIRK current amplitude (mGluR3-3xTM4 [4]; Glutamate 10 nM) was 0.000. For the same compound, the GIRK current amplitude (mGluR3-3xTM4 [4]; Glutamate 10 uM) was 0.695 and 0.866, the GIRK current amplitude (mGluR3-3xTM4 [4]; Glutamate 100 uM) was 1.078 and 0.767 and 0.806 and the GIRK current amplitude (mGluR3-3xTM4 [4]; Glutamate 1mM) was 1.000. For the same compound, the EC50 (mGluR3-3xTM4 [4]; read-out: Glutamate EC50, GIRK activation, normalized to saturating (1 mM) glutamate, unit inferred) was 1.02 ± 0.17 µM, the “% Dimerization” value (mGluR2-C121A-3xTM4; SNAP-mGluR2-C121A-3xTM4 in presence of the ligand, single replicates per experiment day) was 89.26% and 88.28% and 81.34% and 81.93% and 82.70% and 80.09% and the “effect of ligand on dimerization (SiMPull)” value (mGluR2-C121A-3xTM4; saturating concentration) was “clear increase in dimerization”.

— publication PMC8102066 (eLife, 2021)
